# Legend:
# Format in all cases: functional
# Staphylococcus aureus [1] = assay: Antibacterial activity against vancomycin-intermediate Staphylococcus aureus Mu50 after 24 hrs by Etest
# Staphylococcus aureus [2] = assay: Antibacterial activity against vancomycin-susceptible Staphylococcus aureus Mu50omega after 24 hrs by Etest
# Staphylococcus aureus [3] = assay: Antibacterial activity against vancomycin-intermediate Staphylococcus aureus Mu50 after 48 hrs by Etest
# Staphylococcus aureus [4] = assay: Antibacterial activity against vancomycin-susceptible Staphylococcus aureus Mu50omega after 48 hrs by Etest
# Staphylococcus aureus [5] = assay: Antibacterial activity against vancomycin-susceptible Staphylococcus aureus Mu50omega expressing vraSn mutant gene after 24 hrs by Etest
# Staphylococcus aureus [6] = assay: Antibacterial activity against vancomycin-susceptible Staphylococcus aureus Mu50omega expressing vraSm mutant gene after 24 hrs by Etest
# Staphylococcus aureus [7] = assay: Antibacterial activity against vancomycin-susceptible Staphylococcus aureus Mu50omega expressing vraSm, graRm mutant gene after 24 hrs by Etest
# Staphylococcus aureus [8] = assay: Antibacterial activity against vancomycin-susceptible Staphylococcus aureus Mu50omega expressing vraSn mutant gene after 48 hrs by Etest
# Staphylococcus aureus [9] = assay: Antibacterial activity against vancomycin-susceptible Staphylococcus aureus Mu50omega expressing vraSm mutant gene after 48 hrs by Etest
# Staphylococcus aureus [10] = assay: Antibacterial activity against vancomycin-susceptible Staphylococcus aureus Mu50omega expressing vraSm, graRm mutant gene after 48 hrs by Etest
# Staphylococcus aureus [11] = assay: Antibacterial activity against vancomycin-intermediate Staphylococcus aureus Mu50 after 24 hrs by Etest in presence of Sulbactam; conditions: Mu50, 24 h
# Staphylococcus aureus [12] = assay: Antibacterial activity against vancomycin-susceptible Staphylococcus aureus Mu50omega after 24 hrs by Etest in presence of Sulbactam
# Staphylococcus aureus [13] = assay: Antibacterial activity against vancomycin-susceptible Staphylococcus aureus Mu50omega expressing vraSn mutant gene after 24 hrs by Etest in presence of Sulbactam
# Staphylococcus aureus [14] = assay: Antibacterial activity against vancomycin-susceptible Staphylococcus aureus Mu50omega expressing vraSm mutant gene after 24 hrs by Etest in presence of Sulbactam
# Staphylococcus aureus [15] = assay: Antibacterial activity against vancomycin-susceptible Staphylococcus aureus Mu50omega expressing vraSm, graRm mutant gene after 24 hrs by Etest in presence of Sulbactam
# Staphylococcus aureus [16] = assay: Antibacterial activity against vancomycin-intermediate Staphylococcus aureus Mu50 after 48 hrs by Etest in presence of Sulbactam; conditions: Mu50, 48 h
# Staphylococcus aureus [17] = assay: Antibacterial activity against vancomycin-susceptible Staphylococcus aureus Mu50omega after 48 hrs by Etest in presence of Sulbactam
# Staphylococcus aureus [18] = assay: Antibacterial activity against vancomycin-susceptible Staphylococcus aureus Mu50omega expressing vraSn mutant gene after 48 hrs by Etest in presence of Sulbactam
# Staphylococcus aureus [19] = assay: Antibacterial activity against vancomycin-susceptible Staphylococcus aureus Mu50omega expressing vraSm mutant gene after 48 hrs by Etest in presence of Sulbactam
# Staphylococcus aureus [20] = assay: Antibacterial activity against vancomycin-susceptible Staphylococcus aureus Mu50omega expressing vraSm, graRm mutant gene after 48 hrs by Etest in presence of Sulbactam
Molecule,"MIC (Staphylococcus aureus [1]; Mu50, 24 h)",MIC (Staphylococcus aureus [2]),"MIC (Staphylococcus aureus [3]; Mu50, 48 h)",MIC (Staphylococcus aureus [4]),MIC (Staphylococcus aureus [5]),MIC (Staphylococcus aureus [6]),MIC (Staphylococcus aureus [7]),MIC (Staphylococcus aureus [8]),MIC (Staphylococcus aureus [9]),MIC (Staphylococcus aureus [10]),further results
CC[C@H]1OC(=O)[C@H](C)[C@@H](O[C@H]2C[C@@](C)(OC)[C@@H](O)[C@H](C)O2)[C@H](C)[C@@H](O[C@@H]2O[C@H](C)C[C@H](N(C)C)[C@H]2O)[C@](C)(OC)C[C@@H](C)C(=O)[C@H](C)[C@@H](O)[C@]1(C)O [CLARITHROMYCIN],> 256 µg/mL,> 256 µg/mL,> 256 µg/mL,> 256 µg/mL,,,,,,,
O=C(O)c1cn(C2CC2)c2cc(N3CCNCC3)c(F)cc2c1=O [CIPROFLOXACIN],> 32 µg/mL,> 32 µg/mL,> 32 µg/mL,> 32 µg/mL,,,,,,,
CC[C@H]1OC(=O)[C@H](C)[C@@H](O[C@H]2C[C@@](C)(OC)[C@@H](O)[C@H](C)O2)[C@H](C)[C@@H](O[C@@H]2O[C@H](C)C[C@H](N(C)C)[C@H]2O)[C@](C)(O)C[C@@H](C)CN(C)[C@H](C)[C@@H](O)[C@]1(C)O [AZITHROMYCIN],> 256 µg/mL,> 256 µg/mL,> 256 µg/mL,> 256 µg/mL,,,,,,,
GENTAMICIN,,0.064 µg/mL,,0.064 µg/mL,64 µg/mL,0.064 µg/mL,0.064 µg/mL,0.064 µg/mL,0.064 µg/mL,0.064 µg/mL,MIC (Staphylococcus aureus [1]): 0.128 µg/mL; MIC (Staphylococcus aureus [3]): 0.128 µg/mL
CO[C@@]1(NC(=O)Cc2cccs2)C(=O)N2C(C(=O)O)=C(COC(N)=O)CS[C@@H]21 [CEFOXITIN],> 256 µg/mL,32 µg/mL,> 256 µg/mL,32 µg/mL,> 256 µg/mL,> 256 µg/mL,> 256 µg/mL,> 256 µg/mL,> 256 µg/mL,> 256 µg/mL,
CC1(C)S[C@@H]2[C@H](NC(=O)[C@H](N)c3ccccc3)C(=O)N2[C@H]1C(=O)O [AMPICILLIN],8 µg/mL,1 µg/mL,8 µg/mL,1 µg/mL,12 µg/mL,12 µg/mL,12 µg/mL,12 µg/mL,12 µg/mL,12 µg/mL,MIC (Staphylococcus aureus [11]): 48 µg/mL; MIC (Staphylococcus aureus [12]): 2 µg/mL; MIC (Staphylococcus aureus [13]): 48 µg/mL; MIC (Staphylococcus aureus [14]): 64 µg/mL; MIC (Staphylococcus aureus [15]): 64 µg/mL; MIC (Staphylococcus aureus [16]): 48 µg/mL; MIC (Staphylococcus aureus [17]): 2 µg/mL; MIC (Staphylococcus aureus [18]): 48 µg/mL; MIC (Staphylococcus aureus [19]): 64 µg/mL; MIC (Staphylococcus aureus [20]): 64 µg/mL
CN[C@H](CC(C)C)C(=O)N[C@H]1C(=O)N[C@@H](CC(N)=O)C(=O)N[C@H]2C(=O)N[C@H]3C(=O)N[C@H](C(=O)N[C@H](C(=O)O)c4cc(O)cc(O)c4-c4cc3ccc4O)[C@H](O)c3ccc(c(Cl)c3)Oc3cc2cc(c3O[C@@H]2O[C@H](CO)[C@@H](O)[C@H](O)[C@H]2O[C@H]2C[C@](C)(N)[C@H](O)[C@H](C)O2)Oc2ccc(cc2Cl)[C@H]1O [VANCOMYCIN],6 µg/mL,0.5 µg/mL,7 µg/mL,1 µg/mL,3.5 µg/mL,4.5 µg/mL,6 µg/mL,4 µg/mL,5 µg/mL,7 µg/mL,
CC[C@H]1OC(=O)[C@H](C)[C@@H](O[C@H]2C[C@@](C)(OC)[C@@H](O)[C@H](C)O2)[C@H](C)[C@@H](O[C@@H]2O[C@H](C)C[C@H](N(C)C)[C@H]2O)[C@](C)(O)C[C@@H](C)C(=O)[C@H](C)[C@@H](O)[C@]1(C)O [ERYTHROMYCIN],> 250 µg/mL,> 256 µg/mL,> 250 µg/mL,> 256 µg/mL,,,,,,,
COc1cccc(OC)c1C(=O)N[C@@H]1C(=O)N2[C@@H]1SC(C)(C)[C@@H]2C(=O)O [METHICILLIN],> 256 µg/mL,> 256 µg/mL,> 256 µg/mL,> 256 µg/mL,,,,,,,
CN(C)c1ccc(O)c2c1C[C@H]1C[C@H]3[C@H](N(C)C)C(O)=C(C(N)=O)C(=O)[C@@]3(O)C(O)=C1C2=O [MINOCYCLINE],12 µg/mL,10 µg/mL,24 µg/mL,24 µg/mL,8 µg/mL,8 µg/mL,8 µg/mL,24 µg/mL,24 µg/mL,24 µg/mL,
C[C@@H](O)[C@H]1C(=O)N2C(C(=O)O)=C(SCCNC=N)C[C@H]12 [IMIPENEM ANHYDROUS],> 32 µg/mL,0.38 µg/mL,> 32 µg/mL,0.38 µg/mL,> 32 µg/mL,> 32 µg/mL,> 32 µg/mL,> 32 µg/mL,> 32 µg/mL,> 32 µg/mL,

# From ChEMBL document CHEMBL1629665, “Contribution of vraSR and graSR point mutations to vancomycin resistance in vancomycin-intermediate Staphylococcus aureus” (2009)
